Measurements: article PMC10713593, “Staphylococcus aureus functional amyloids catalyze degradation of β-lactam antibiotics” (Nature Communications, 2023)
Where no end group is shown, it is not given here.

How the values were obtained:
[1] = Nitrocefin hydrolysis kinetics (absorbance of degraded nitrocefin at 480 nm; initial rates V0, Michaelis-Menten fit); format: biochemical; parameters: Initial nitrocefin-degradation reaction rate, V0: unit not given here; conditions: for Initial nitrocefin-degradation reaction rate, V0 / nitrocefin degradation yield (turnover): nitrocefin 60 µM; for Initial nitrocefin-degradation reaction rate, V0: Hepes pH 7.4, average of the six runs; for nitrocefin degradation yield (turnover): PSMα assemblies 350 µM, A480, monitored 2 h (Fig. 2a)
Experimental: Nitrocefin, a β-lactam widely used as a surrogate substrate of Penicillin in β-lactamase activity assay, was used as a substrate. NC degradation was monitored for 2 h. Nitrocefin stock solution was dissolved in acetonitrile (20 mM) and then diluted with Hepes buffer (50 mM, pH 7.4) to nitrocefin concentration of 360 µM (further dilutions to lower concentrations were made with the 360 µM NC stock). All nitrocefin samples were kept on ice in cold conditions and any further dilution or mixing was performed in ice-cold conditions to avoid self-hydrolysis background reaction. […] Immediately after mixing the samples, the plate was transferred to 20̊ °C pre-cooled plate reader (Multiskan GO, Thermo Scientific, Waltham, MA) and shaken slowly for 10 s. Then, the absorbance of degraded nitrocefin was measured for 2 h at interval of 20 s at λ = 480 nm. Initial production rates (V0) were calculated by slope of the initial linear range of degraded-nitrocefin production at the first 15 min. The reported results are and average of at least five separate measurements (the exact number of repeats, N, is reported next to the values). Each experiment also included blank samples of nitrocefin substrate diluted with buffer instead of PSMα. […] The initial rate calculations were performed while also subtracting the self-degradation of the substrate, to ensure that this product absorbance is a result of PSMα presence.
The initial rates of degraded-nitrocefin production were calculated from the slopes of the first 15 min of measurement as reported above. The initial rates (V0) were fitted using non-linear regression applied with the solver function in excel, either to Michalis–Menten equation V=Vmax.[S]/(KM+S) Where Vmax. Stands for maximal reaction rate, KM stands for Michalis–Menten constant, [S] stands for the substrate molar concentration. Each initial rate value was presented as average ± SEM. The kinetic parameters were calculated by fitting the data to MM model using non-linear regression, and the confidence intervals for each parameter were calculated accordingly.

PSMα3 fibrils = PSMα3 fibrils (Staphylococcus aureus, UniProt A9JX07); assay: LC-MS degradation of amoxicillin and penicillin G with PSMα3 fibrils or buffer; format: biochemical; parameters: key to Amoxicillin (remaining) / Degraded Amoxicillin (PSMa3) / Degraded Amoxicillin: % relative abundance from extracted ion chromatogram peak areas; conditions: for Amoxicillin (remaining) / Degraded Amoxicillin: buffer only (blank); for Amoxicillin (remaining) / Degraded Amoxicillin / Amoxicillin (PSMa3) (remaining) / Degraded Amoxicillin (PSMa3): LC-MS; for Amoxicillin (remaining) / Amoxicillin (PSMa3) (remaining): 366 peak as share of 366+384 sum; for Degraded Amoxicillin / Degraded Amoxicillin (PSMa3): 384 peak as share of 366+384 sum
Sequence of PSMα3 fibrils (A9JX07 whole entry, looked up): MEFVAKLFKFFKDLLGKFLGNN
Experimental: Amoxicillin or Penicillin solutions were dissolved in Hepes buffer (50 mM, pH 7.4) in concentration of 50 µM. PSMα3 solution in concentration of 1.54 mM was dissolved in DIW and Hepes buffer was added to the final concentration of 50 mM. The antibiotics’ solutions and preincubated PSMα3 solutions were mixed to final PSMα3 […] 180 µL organic solvent to stop the reaction (acetonitrile for Amoxicillin, methanol in the case of Penicillin). The samples were collected and injected sequentially into the LC-MS analysis.
Waters ACQUITY UPLC I-Class PLUS System coupled with high-resolution Thermo Orbitrap Exploris 240 mass-spectrometer were used for analysis of Amoxicillin and Penicillin-G over time. 1 µL of each sample was injected into the reverse-phase Acquity UPLC BEH C18 1.7 µm, 2.1 × 50 mm column (Waters) and run under a gradient program (Table S2 for Amoxicillin, Table S3 for Penicillin-G). The samples were ionized using soft electrospray ionization in positive mode and detected in a full scan mode in range from 60 to 900 m/z with a resolution of 240,000 Full Width at Half Maximum. MS was tuned according to the manufacture recommendations. Relative abundance of the intact/degraded compounds was calculated by peak area of the extracted ion chromatogram: for Amoxicillin 366.1–366.12, and degraded-Amoxicillin 384.1–384.13 m/z, Penicillin-G 335.1–335.12, for degraded-Penicillin-G 353.1–353.12, for (Figs. S13 and S14, respectively).

For “MQFVAKLFKFFKNLLGKFLGNN-NH2 [α3-cationic]”, the ATR-FTIR amide-I peak/maximum was 1660 cm⁻¹ and the “initial rate of nitrocefin degradation reaction (V0)” value ([1]; peptide 170 µM, initial nitrocefin 107 µM, Hepes 50 mM pH 7.4, 20 °C, first 15 min (Fig. 3f)) was “around 60 µM/h”.

In the case of CC[C@H](C)[C@H](NC(=O)CNC(=O)[C@@H](N)CCSC)C(=O)N[C@H](C(=O)N[C@@H](C)C(=O)NCC(=O)N[C@H](C(=O)N[C@H](C(=O)N[C@@H](CCCCN)C(=O)N[C@@H](Cc1ccccc1)C(=O)N[C@H](C(=O)N[C@@H](CCCCN)C(=O)NCC(=O)N[C@@H](CC(C)C)C(=O)N[C@H](C(=O)N[C@@H](CCC(=O)O)C(=O)N[C@@H](CCCCN)C(=O)N[C@@H](Cc1ccccc1)C(=O)N[C@H](C(=O)NCC(=O)N[C@@H](CCCCN)C(=O)O)[C@@H](C)O)[C@@H](C)CC)[C@@H](C)CC)[C@@H](C)CC)[C@@H](C)CC)[C@@H](C)CC [PSMα2], the ATR-FTIR amide-I peak/maximum is reported as 1650 cm⁻¹, the “Initial nitrocefin-degradation reaction rate, V0” value ([1]; PSMα 4.01424 uM) is reported as 1.158 and the “Initial nitrocefin-degradation reaction rate, V0” value ([1]; PSMα 6.02136 uM) is reported as -0.4109. For the same compound, the “Initial nitrocefin-degradation reaction rate, V0” value ([1]; PSMα 9.03205 uM) was 0.9321, the “Initial nitrocefin-degradation reaction rate, V0” value ([1]; PSMα 13.5481 uM) was 0.6055 and the “Initial nitrocefin-degradation reaction rate, V0” value ([1]; PSMα 20.3221 uM) was 1.35. For the same compound, the “Initial nitrocefin-degradation reaction rate, V0” value ([1]; PSMα 30.4832 uM) was 1.3793, the “Initial nitrocefin-degradation reaction rate, V0” value ([1]; PSMα 45.7247 uM) was 2.588 and the “Initial nitrocefin-degradation reaction rate, V0” value ([1]; PSMα 68.5871 uM) was 11.4228. The “Initial nitrocefin-degradation reaction rate, V0” value ([1]; PSMα 102.881 uM) was 36.0382, the “Initial nitrocefin-degradation reaction rate, V0” value ([1]; PSMα 154.321 uM) was 59.4111 and the “Initial nitrocefin-degradation reaction rate, V0” value ([1]; PSMα 231.481 uM) was 94.344. The “Initial nitrocefin-degradation reaction rate, V0” value ([1]; PSMα 347.222 uM) was 117.315 and the “nitrocefin degradation yield (turnover)” value ([1]; Hepes 50 mM pH 7.4, 20 °C) was ~100%.

For MGIIAGIIKVIKSLIEQFTGK [PSMα1], the ATR-FTIR amide-I peak/maximum was 1650 cm⁻¹, the “Initial nitrocefin-degradation reaction rate, V0” value ([1]; PSMα 4.01424 uM) was 0.191 and the “Initial nitrocefin-degradation reaction rate, V0” value ([1]; PSMα 6.02136 uM) was -0.01182. For the same compound, the “Initial nitrocefin-degradation reaction rate, V0” value ([1]; PSMα 9.03205 uM) was -0.1032, the “Initial nitrocefin-degradation reaction rate, V0” value ([1]; PSMα 13.5481 uM) was -0.1644 and the “Initial nitrocefin-degradation reaction rate, V0” value ([1]; PSMα 20.3221 uM) was -0.2267. The “Initial nitrocefin-degradation reaction rate, V0” value ([1]; PSMα 30.4832 uM) was -0.2129, the “Initial nitrocefin-degradation reaction rate, V0” value ([1]; PSMα 45.7247 uM) was -0.2655 and the “Initial nitrocefin-degradation reaction rate, V0” value ([1]; PSMα 68.5871 uM) was -0.7898. The “Initial nitrocefin-degradation reaction rate, V0” value ([1]; PSMα 102.881 uM) was 9.2527, the “Initial nitrocefin-degradation reaction rate, V0” value ([1]; PSMα 154.321 uM) was 10.6002 and the “Initial nitrocefin-degradation reaction rate, V0” value ([1]; PSMα 231.481 uM) was 20.6526. For the same compound, the “Initial nitrocefin-degradation reaction rate, V0” value ([1]; PSMα 347.222 uM) was 27.2811 and the “nitrocefin degradation yield (turnover)” value ([1]; Hepes 50 mM pH 7.4, 20 °C) was ~ 50%.

In the case of CC1(C)S[C@@H]2[C@H](NC(=O)[C@H](N)c3ccc(O)cc3)C(=O)N2[C@H]1C(=O)O [amoxycillin], the “hydrolysis by PSMα3 fibrils versus spontaneous degradation” value (PSMα3 fibrils; antibiotic 40 µM, PSMα3 fibrils 308 µM, Hepes 50 mM pH 7.4, LC-MS (Fig. 6)) is reported as “significantly higher extent compared to the spontaneous degradation”, the “Amoxicillin (remaining)” value (PSMα3 fibrils; 0h) is reported as 81.4445 and the “Degraded Amoxicillin” value (PSMα3 fibrils; 0h) is reported as 18.5555. The “Amoxicillin (remaining)” value (PSMα3 fibrils; 4h) was 80.1864, the “Degraded Amoxicillin” value (PSMα3 fibrils; 4h) was 19.8136 and the “Amoxicillin (remaining)” value (PSMα3 fibrils; 8h) was 79.6866. The “Degraded Amoxicillin” value (PSMα3 fibrils; 8h) was 20.3134, the “Amoxicillin (remaining)” value (PSMα3 fibrils; 12h) was 78.9455 and the “Degraded Amoxicillin” value (PSMα3 fibrils; 12h) was 21.0545. For the same compound, the “Amoxicillin (remaining)” value (PSMα3 fibrils; 24h) was 78.1892, the “Degraded Amoxicillin” value (PSMα3 fibrils; 24h) was 21.8108 and the “Amoxicillin (remaining)” value (PSMα3 fibrils; 60h) was 69.9317. For the same compound, the “Degraded Amoxicillin” value (PSMα3 fibrils; 60h) was 30.0683, the “Amoxicillin (remaining)” value (PSMα3 fibrils; 72h) was 68.3628 and the “Degraded Amoxicillin” value (PSMα3 fibrils; 72h) was 31.6372. The “Amoxicillin (remaining)” value (PSMα3 fibrils; 80h) was 59.5525, the “Degraded Amoxicillin” value (PSMα3 fibrils; 80h) was 40.4475 and the “Amoxicillin (PSMa3) (remaining)” value (PSMα3 fibrils; with PSMa3, 0h) was 79.7112. The “Degraded Amoxicillin (PSMa3)” value (PSMα3 fibrils; with PSMa3, 0h) was 20.2888, the “Amoxicillin (PSMa3) (remaining)” value (PSMα3 fibrils; with PSMa3, 4h) was 78.2636 and the “Degraded Amoxicillin (PSMa3)” value (PSMα3 fibrils; with PSMa3, 4h) was 21.7364. For the same compound, the “Amoxicillin (PSMa3) (remaining)” value (PSMα3 fibrils; with PSMa3, 8h) was 74.8273, the “Degraded Amoxicillin (PSMa3)” value (PSMα3 fibrils; with PSMa3, 8h) was 25.1727 and the “Amoxicillin (PSMa3) (remaining)” value (PSMα3 fibrils; with PSMa3, 12h) was 70.3173. The “Degraded Amoxicillin (PSMa3)” value (PSMα3 fibrils; with PSMa3, 12h) was 29.6827, the “Amoxicillin (PSMa3) (remaining)” value (PSMα3 fibrils; with PSMa3, 24h) was 62.2462 and the “Degraded Amoxicillin (PSMa3)” value (PSMα3 fibrils; with PSMa3, 24h) was 37.7538. For the same compound, the “Amoxicillin (PSMa3) (remaining)” value (PSMα3 fibrils; with PSMa3, 60h) was 12.8041, the “Degraded Amoxicillin (PSMa3)” value (PSMα3 fibrils; with PSMa3, 60h) was 87.1959 and the “Amoxicillin (PSMa3) (remaining)” value (PSMα3 fibrils; with PSMa3, 72h) was 5.039. The “Degraded Amoxicillin (PSMa3)” value (PSMα3 fibrils; with PSMa3, 72h) was 94.9606, the “Amoxicillin (PSMa3) (remaining)” value (PSMα3 fibrils; with PSMa3, 80h) was 3.011 and the “Degraded Amoxicillin (PSMa3)” value (PSMα3 fibrils; with PSMa3, 80h) was 96.9892.
